Source: patent US20210254056A1, “IDENTIFICATION AND TARGETED MODULATION OF GENE SIGNALING NETWORKS” (CAMP4 THERAPEUTICS CORPORATION, priority 2017, published 2021)
Like-named read-outs stand apart in the source and are kept apart here.

Columns and labels:
[1] = test system: CI-CB-CD34+ cells; assay: Biological activity of maximal compound dosages in CI-CB-CD34+ cells; format: cell-based, human; details: 10 μM dose
Experimental: (§1) The stock for each compound was at 10 mM and were diluted to 100 μM with RMPI+GCMSF (2% DMSO). Cells were collected and resuspended in 8 mL of RPMI+GMCSF at a concentration of 1×10^6 cells/mL. For the TF1 cells, at each well of a 6-well plate were added 1 mL of cells, 300 μL of 100 μM compound dilution, and 1.7 mL of RMPI+GCMSF+1.5% DMSO (1% final DMSO concentration in 3 mL total). One mL of the CI-CB-CD34+ cells, 300 μL of 100 μM compound dilution, and 700 μL of RMPI+GCMSF ([…]) were added to each well of a 6-well plate.
(§2) Compound dilutions were performed as described in Example 1. […] In a 6-well format, there were 1 million cells/well=1 million cells/ml=1000 cells/pl. […].

[2] = test system: TF1 cells; assay: Biological activity of maximal compound dosages in TF1 cells; format: cell-based; details: 10 μM dose
Experimental: as §1, §2

[3] = test system: primary human hepatocytes; assay: RNA-seq of primary human hepatocytes treated with 39 small molecules (pilot and validation); details: for Number (#) of genes having significantly changed expression: pilot RNA-seq study of Example 2, significance: FPKM≥0.5, log 2(fold change)≥1, q-value ≤0.05
[4] = test system: primary human hepatocytes
[5] = RNA-seq, p-value≤0.05, primary human hepatocytes, the modulated genes are listed in the block

COc1ccc(C2=N[C@@H](c3ccc(Cl)cc3)[C@@H](c3ccc(Cl)cc3)N2C(=O)N2CCNC(=O)C2)c(OC(C)C)c1 (racemic) [Nutlin 3]
biological activity of CD34+ cells (cell viability) [1]: reduced biological activity
response of TF1 cells (biological activity, cell viability) [2]: did not significantly respond

Cc1ccc(-c2cn3c4c(sc3n2)CCCC4)cc1 [Cyclic-pifithrin alpha, Cyclic Pifithrin-a]
response of TF1 cells (biological activity, cell viability) [2]: did not significantly respond

CN(C)CCC=C1c2ccccc2COc2ccccc21 [MT-723, Adapin (doxepin)]
Log2 fold changes in gene expression: ACADVL [3]: 0
Log2 fold changes in gene expression: ACAT2 [3]: −0.03
Log2 fold changes in gene expression: ACSL1 [3]: 0.04
Log2 fold changes in gene expression: ACSL5 [3]: 0.03
Log2 fold changes in gene expression: AGPAT2 [3]: −0.05
Log2 fold changes in gene expression: AGTR1 [3]: 0.03
Log2 fold changes in gene expression: AHSG [3]: −0.07
Log2 fold changes in gene expression: ALAS1 [3]: −0.01
Log2 fold changes in gene expression: AMACR [3]: −0.11
Log2 fold changes in gene expression: ARG1 [3]: 0.07
Log2 fold changes in gene expression: CA2 [3]: −0.08
Log2 fold changes in gene expression: CA12 [3]: 0.29
Log2 fold changes in gene expression: CIDEC [3]: 0.09
Log2 fold changes in gene expression: COL1A1 [3]: −0.14
Log2 fold changes in gene expression: CPS1 [3]: −0.04
Log2 fold changes in gene expression: CPT1A [3]: 0.06
Log2 fold changes in gene expression: CPT2 [3]: −0.09
Log2 fold changes in gene expression: CYP21A2 [3]: 0.08
Log2 fold changes in gene expression: ECH1 [3]: −0.04
Log2 fold changes in gene expression: ENO3 [3]: −0.21
Log2 fold changes in gene expression: ETFDH [3]: 0.05
Log2 fold changes in gene expression: FABP1 [3]: −0.08
Log2 fold changes in gene expression: G6PC [3]: 0.03
Log2 fold changes in gene expression: GHR [3]: −0.05
Log2 fold changes in gene expression: GLA [3]: 0.01
Log2 fold changes in gene expression: HGD [3]: 0
Log2 fold changes in gene expression: HMGCR [3]: 0.02
Log2 fold changes in gene expression: HMGCS2 [3]: −0.04
Log2 fold changes in gene expression: HMOX1 [3]: 0.22
Log2 fold changes in gene expression: HOGA1 [3]: 0.03
Log2 fold changes in gene expression: HPGD [3]: 0.05
Log2 fold changes in gene expression: IFT27 [3]: 0
Log2 fold changes in gene expression: LDHA [3]: −0.09
Log2 fold changes in gene expression: LPIN2 [3]: 0.03
Log2 fold changes in gene expression: MOGAT2 [3]: 0.01
Log2 fold changes in gene expression: NCF2 [3]: −0.21
Log2 fold changes in gene expression: PCSK9 [3]: 0.11
Log2 fold changes in gene expression: POR [3]: 0.1
Log2 fold changes in gene expression: RMRP [3]: −0.14
Log2 fold changes in gene expression: SLC2A2 [3]: −0.04
Log2 fold changes in gene expression: SLC6A6 [3]: 0.17
Log2 fold changes in gene expression: SLC25A20 [3]: −0.1
Log2 fold changes in gene expression: SLC37A4 [3]: −0.17
Log2 fold changes in gene expression: SLC51B [3]: −0.26
Log2 fold changes in gene expression: SULT2A1 [3]: 0.03
Log2 fold changes in gene expression: TAT [3]: −0.1
Log2 fold changes in gene expression: TDO2 [3]: −0.14
Log2 fold changes in gene expression: TMEM135 [3]: 0.05
Log2 fold changes in gene expression: TNFSF11 [3]: −0.11
Log2 fold changes in gene expression: VLDLR [3]: 0.01
significant modulation of gene expression [3]: significantly (p-value≤0.05) modulate
Log2 fold changes in gene expression: CYP2C19 [4]: 0.18
Log2 fold changes in gene expression: CYP3A4 [4]: 0.14

CC(C)(S)[C@@H](N)C(=O)O [MT-741, Penicillamine(D-)]
Log2 fold changes in gene expression: ACADVL ([3]; RNA-seq validation, duplicates, gene ACADVL): −0.04
Log2 fold changes in gene expression: ACAT2 ([3]; RNA-seq validation, duplicates, gene ACAT2): −0.05
Log2 fold changes in gene expression: ACSL1 ([3]; RNA-seq validation, duplicates, gene ACSL1): 0
Log2 fold changes in gene expression: ACSL5 ([3]; RNA-seq validation, duplicates, gene ACSL5): −0.05
Log2 fold changes in gene expression: AGPAT2 ([3]; RNA-seq validation, duplicates, gene AGPAT2): −0.11
Log2 fold changes in gene expression: AGTR1 ([3]; RNA-seq validation, duplicates, gene AGTR1): −0.04
Log2 fold changes in gene expression: AHSG ([3]; RNA-seq validation, duplicates, gene AHSG): 0.03
Log2 fold changes in gene expression: ALAS1 ([3]; RNA-seq validation, duplicates, gene ALAS1): −0.11
Log2 fold changes in gene expression: AMACR ([3]; RNA-seq validation, duplicates, gene AMACR): −0.24
Log2 fold changes in gene expression: ARG1 ([3]; RNA-seq validation, duplicates, gene ARG1): 0.01
Log2 fold changes in gene expression: CA2 ([3]; RNA-seq validation, duplicates, gene CA2): −0.18
Log2 fold changes in gene expression: CA12 ([3]; RNA-seq validation, duplicates, gene CA12): −0.02
Log2 fold changes in gene expression: CIDEC ([3]; RNA-seq validation, duplicates, gene CIDEC): −0.24
Log2 fold changes in gene expression: COL1A1 ([3]; RNA-seq validation, duplicates, gene COL1A1): 0.14
Log2 fold changes in gene expression: CPS1 ([3]; RNA-seq validation, duplicates, gene CPS1): −0.12
Log2 fold changes in gene expression: CPT1A ([3]; RNA-seq validation, duplicates, gene CPT1A): 0.04
Log2 fold changes in gene expression: CPT2 ([3]; RNA-seq validation, duplicates, gene CPT2): −0.22
Log2 fold changes in gene expression: CYP21A2 ([3]; RNA-seq validation, duplicates, gene CYP21A2): 0.04
Log2 fold changes in gene expression: ECH1 ([3]; RNA-seq validation, duplicates, gene ECH1): −0.14
Log2 fold changes in gene expression: ENO3 ([3]; RNA-seq validation, duplicates, gene ENO3): −0.17
Log2 fold changes in gene expression: ETFDH ([3]; RNA-seq validation, duplicates, gene ETFDH): −0.12
Log2 fold changes in gene expression: FABP1 ([3]; RNA-seq validation, duplicates, gene FABP1): −0.22
Log2 fold changes in gene expression: G6PC ([3]; RNA-seq validation, duplicates, gene G6PC): 0.14
Log2 fold changes in gene expression: GHR ([3]; RNA-seq validation, duplicates, gene GHR): −0.13
Log2 fold changes in gene expression: GLA ([3]; RNA-seq validation, duplicates, gene GLA): −0.06
Log2 fold changes in gene expression: HGD ([3]; RNA-seq validation, duplicates, gene HGD): −0.16
Log2 fold changes in gene expression: HMGCR ([3]; RNA-seq validation, duplicates, gene HMGCR): 0.05
Log2 fold changes in gene expression: HMGCS2 ([3]; RNA-seq validation, duplicates, gene HMGCS2): −0.03
Log2 fold changes in gene expression: HMOX1 ([3]; RNA-seq validation, duplicates, gene HMOX1): 0.05
Log2 fold changes in gene expression: HOGA1 ([3]; RNA-seq validation, duplicates, gene HOGA1): 0
Log2 fold changes in gene expression: HPGD ([3]; RNA-seq validation, duplicates, gene HPGD): −0.06
Log2 fold changes in gene expression: IFT27 ([3]; RNA-seq validation, duplicates, gene IFT27): −0.01
Log2 fold changes in gene expression: LDHA ([3]; RNA-seq validation, duplicates, gene LDHA): 0.08
Log2 fold changes in gene expression: LPIN2 ([3]; RNA-seq validation, duplicates, gene LPIN2): 0.17
Log2 fold changes in gene expression: MOGAT2 ([3]; RNA-seq validation, duplicates, gene MOGAT2): 0.13
Log2 fold changes in gene expression: NCF2 ([3]; RNA-seq validation, duplicates, gene NCF2): −0.19
Log2 fold changes in gene expression: PCSK9 ([3]; RNA-seq validation, duplicates, gene PCSK9): 0.17
Log2 fold changes in gene expression: POR ([3]; RNA-seq validation, duplicates, gene POR): −0.14
Log2 fold changes in gene expression: RMRP ([3]; RNA-seq validation, duplicates, gene RMRP): −1.45
Log2 fold changes in gene expression: SLC2A2 ([3]; RNA-seq validation, duplicates, gene SLC2A2): −0.22
Log2 fold changes in gene expression: SLC6A6 ([3]; RNA-seq validation, duplicates, gene SLC6A6): −0.35
Log2 fold changes in gene expression: SLC25A20 ([3]; RNA-seq validation, duplicates, gene SLC25A20): −0.31
Log2 fold changes in gene expression: SLC37A4 ([3]; RNA-seq validation, duplicates, gene SLC37A4): 0.09
Log2 fold changes in gene expression: SLC51B ([3]; RNA-seq validation, duplicates, gene SLC51B): −0.08
Log2 fold changes in gene expression: SULT2A1 ([3]; RNA-seq validation, duplicates, gene SULT2A1): −0.18
Log2 fold changes in gene expression: TAT ([3]; RNA-seq validation, duplicates, gene TAT): 0.09
Log2 fold changes in gene expression: TDO2 ([3]; RNA-seq validation, duplicates, gene TDO2): −0.14
Log2 fold changes in gene expression: TMEM135 ([3]; RNA-seq validation, duplicates, gene TMEM135): −0.16
Log2 fold changes in gene expression: TNFSF11 ([3]; RNA-seq validation, duplicates, gene TNFSF11): 0.04
Log2 fold changes in gene expression: VLDLR ([3]; RNA-seq validation, duplicates, gene VLDLR): 0.09
significant modulation of gene expression [3, 5]: significantly (p-value≤0.05) modulate
Number (#) of genes having significantly changed expression [3]: 9
Log2 fold changes in gene expression: CYP2C19 [4]: 0.04
Log2 fold changes in gene expression: CYP3A4 [4]: −0.08

C[C@H](CS)C(=O)N1CCC[C@H]1C(=O)O [MT-835, Captopril]
significant modulation of gene expression [3, 5]: significantly (p-value≤0.05) modulate
Number (#) of genes having significantly changed expression [3]: 12
Log2 fold changes in gene expression: CYP2C19 [4]: 0.07
Log2 fold changes in gene expression: CYP3A4 [4]: 0.02

COc1ccc(Cc2nccc3cc(OC)c(OC)cc23)cc1OC [MT-913, Papaverine]
significant modulation of gene expression [3, 5]: significantly (p-value≤0.05) modulate
Number (#) of genes having significantly changed expression [3]: 12
Log2 fold changes in gene expression: CYP2C19 [4]: 0.09
Log2 fold changes in gene expression: CYP3A4 [4]: 0.06

COc1ccc(C2=N[C@@H](c3ccc(Cl)cc3)[C@@H](c3ccc(Cl)cc3)N2C(=O)N2CCNC(=O)C2)c(OC(C)C)c1 [Nutlin 3a]
biological activity of CD34+ cells (cell viability) [1]: reduced biological activity
response of TF1 cells (biological activity, cell viability) [2]: did not significantly respond

Cc1ccc(C(=O)Cn2c3c(sc2=N)CCCC3)cc1 [Pifithrin alpha, Pifithrin-α]
biological activity of CD34+ cells (cell viability) [1]: little or no effect
response of TF1 cells (biological activity, cell viability) [2]: did not significantly respond
